Results on three compounds are retold here after US20080171783A1, “COMPOSITIONS AND METHODS FOR TREATING HYPERPROLIFERATIVE DISEASE” (Migenix Inc., priority 2006, published 2008).

What is called GI50 is the concentration that inhibits growth by half. In general, TGI refers to the concentration giving total growth inhibition. By IC50 is commonly meant the concentration needed to halve the response being measured. Lower therefore signals greater potency.

In assay [1] the test system is KM12. The experiment in a line: NCI In Vitro Cell Line Screening (SRB). In kind it is cell-based, human. The note with it: KM12, Colon Cancer, 48 h; for GI50 / CC50: Homo sapiens; for CC50: read-out: LC50 (the source's name).
Assay [2] relates to SW-620. The experiment in a line: NCI In Vitro Cell Line Screening (SRB). The note with it: SW-620, Colon Cancer, 48 h; for GI50 / CC50: Homo sapiens; for CC50: read-out: LC50 (the source's name). In kind it is cell-based.
Assay [3] has as its system OVCAR-4. The experiment in a line: NCI In Vitro Cell Line Screening (SRB). The note with it: OVCAR-4, Ovarian Cancer, 48 h; for GI50 / CC50: Homo sapiens; for CC50: read-out: LC50 (the source's name). In kind it is cell-based, human.
For assay [4], the system named is SF-539. The experiment in a line: NCI In Vitro Cell Line Screening (SRB). In kind it is cell-based, human. Particulars: SF-539, CNS Cancer, 48 h; for GI50 / CC50: Homo sapiens; for CC50: read-out: LC50 (the source's name).
For assay [5], the system named is ACHN. The experiment in a line: NCI In Vitro Cell Line Screening (SRB). In kind it is cell-based, human. Particulars: Renal Cancer, 48 h; for GI50 / CC50: Homo sapiens; for CC50: read-out: LC50 (the source's name).
Assay [6] relates to HCT-116. The experiment in a line: NCI In Vitro Cell Line Screening (SRB). Particulars: HCT-116, Colon Cancer, 48 h. In kind it is cell-based, human.
The target of assay [7] is T1, human polymerase alpha (Homo sapiens, UniProt P09884).
T1 construct: purchased Replizyme Ltd (Heslington, York, UK)
T1 sequence (P09884 1-1462): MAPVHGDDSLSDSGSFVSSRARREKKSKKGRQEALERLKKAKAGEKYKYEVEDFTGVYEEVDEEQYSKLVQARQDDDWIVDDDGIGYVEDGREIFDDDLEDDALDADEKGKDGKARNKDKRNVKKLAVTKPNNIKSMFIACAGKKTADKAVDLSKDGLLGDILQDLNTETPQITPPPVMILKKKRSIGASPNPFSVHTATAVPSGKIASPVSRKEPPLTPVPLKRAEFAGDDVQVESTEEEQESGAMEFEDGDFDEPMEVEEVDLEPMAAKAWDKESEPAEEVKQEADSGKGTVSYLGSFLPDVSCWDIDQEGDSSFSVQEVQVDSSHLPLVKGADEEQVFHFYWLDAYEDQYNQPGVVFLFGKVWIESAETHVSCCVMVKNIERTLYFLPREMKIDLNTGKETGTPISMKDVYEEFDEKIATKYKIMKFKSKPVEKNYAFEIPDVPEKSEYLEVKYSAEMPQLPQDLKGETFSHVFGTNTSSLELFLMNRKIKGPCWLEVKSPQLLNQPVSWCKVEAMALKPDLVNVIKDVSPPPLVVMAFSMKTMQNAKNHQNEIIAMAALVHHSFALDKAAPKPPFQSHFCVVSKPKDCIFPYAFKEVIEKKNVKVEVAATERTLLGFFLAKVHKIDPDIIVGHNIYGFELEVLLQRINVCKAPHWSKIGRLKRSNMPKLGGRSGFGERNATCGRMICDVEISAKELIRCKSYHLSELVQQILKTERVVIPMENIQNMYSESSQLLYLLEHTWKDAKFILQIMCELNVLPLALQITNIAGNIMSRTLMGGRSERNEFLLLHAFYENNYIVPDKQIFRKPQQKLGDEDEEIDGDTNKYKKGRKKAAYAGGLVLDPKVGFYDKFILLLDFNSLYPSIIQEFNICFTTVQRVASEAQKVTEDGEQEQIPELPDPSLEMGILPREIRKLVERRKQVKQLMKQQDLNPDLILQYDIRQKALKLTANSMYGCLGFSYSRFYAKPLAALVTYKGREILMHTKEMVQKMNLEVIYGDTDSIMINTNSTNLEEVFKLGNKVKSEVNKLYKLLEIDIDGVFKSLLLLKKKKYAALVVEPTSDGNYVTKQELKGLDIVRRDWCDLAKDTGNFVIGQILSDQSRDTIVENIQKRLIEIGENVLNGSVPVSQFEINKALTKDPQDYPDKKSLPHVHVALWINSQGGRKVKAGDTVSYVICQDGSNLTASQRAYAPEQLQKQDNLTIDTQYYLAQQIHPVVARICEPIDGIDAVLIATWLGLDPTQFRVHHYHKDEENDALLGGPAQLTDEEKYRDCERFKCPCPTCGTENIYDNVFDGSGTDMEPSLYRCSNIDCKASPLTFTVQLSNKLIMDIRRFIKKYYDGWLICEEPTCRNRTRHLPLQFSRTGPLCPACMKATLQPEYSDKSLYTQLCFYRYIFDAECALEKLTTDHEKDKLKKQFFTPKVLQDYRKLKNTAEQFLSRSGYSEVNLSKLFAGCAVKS
The experiment in a line: Human polymerase alpha inhibition (Replizyme kit). Particulars: dose response. In kind it is biochemical. On the procedure: Calf polymerase alpha and human polymerase alpha investigations were performed with a kit available from Replizyme Ltd (Heslington, York, UK).

On to `Cc1ccc(NC(=O)[C@@H](CCCCN)NC(=O)Nc2ccc3c(c2)Cc2ccccc2-3)cc1` [Compound 173, (R)-6-AMINO-2-[3-(9H-FLUOREN-2-YL)-UREIDO]-HEXANOIC ACID P-TOLYLAMIDE], for which the GI50 in assay [1] worked out at 1.31 µM; in assay [2], 1.67 µM; in assay [3], 9.3 µM; in assay [4], 1.92 µM; in assay [5], 12.2 µM; in assay [6] (Homo sapiens), 2.16 µM. Moreover, the CC50 in assay [1] is 5.07 µM; in assay [2] it was 6.12 µM; in assay [3] it was above 100 µM; in assay [4] it was 11.9 µM; in assay [5], 54.7 µM. The TGI in assay [1] is 2.57 µM; in assay [2], 3.19 µM; in assay [3] it was 68.8 µM; in assay [4], 4.48 µM; in assay [5] it was 25.8 µM; in assay [6], 4.40 µM.

Turning to `CC(C)(C)c1ccc(NC(=O)[C@H](CCCCN)NC(=O)OCC2c3ccccc3-c3ccccc32)cc1` [Compound 105, (S)-[5-AMINO-1-(4-TERT-BUTYL-PHENYLCARBAMOYL)-PENTYL]-CARBAMIC ACID 9H-FLUOREN-9-YLMETHYL ESTER], the GI50 in assay [1] worked out at 14.8 µM; in assay [2] it was 2.49 µM; in assay [3], 1.77 µM; in assay [4] it was 1.48 µM; in assay [5], 15.7 µM; in assay [6] (Homo sapiens) it was 1.53 µM. Also, the CC50 was 55.7 µM in assay [1]; 21.7 µM in assay [2]; above 100 µM in assay [3]; 5.63 µM in assay [4]; 58.5 µM in assay [5]. Moreover, the TGI in assay [1] came to 28.7 µM; in assay [2], 6.24 µM; in assay [3] it was 4.25 µM; in assay [4], 2.89 µM; in assay [5], 30.3 µM; in assay [6] it was 3.35 µM. For the same compound, the LC50 (concentration killing 50% of cells) in assay [6] (Homo sapiens) came out at 7.3 µM.

Take `Cc1cc2cc(NC(=O)[C@H](CCCNC(=O)CN)NC(=O)Nc3ccc4c(c3)Cc3ccccc3-4)ccc2[nH]1` [Compound 297, (S)-5-(2-AMINO-ACETYLAMINO)-2-[3-(9H-FLUOREN-2-YL)-UREIDO]-PENTANOIC ACID (2-METHYL-1H-INDOL-5-YL)-AMIDE]: the IC50 in assay [7] was 10 µM.
